According to ChEMBL document CHEMBL1201861, “Genomics of Drug Sensitity in Cancer screening data, Wellcome Trust Sanger Institute”:

Legend:
Experiment in all cases: cells
CP66-MEL = type: functional, cell-based; conditions: Homo sapiens;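 further: growth inhibition of CP66-MEL cells determined in a cell viability assay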
Description: SANGER: Inhibition of human CP66-MEL cell growth in a cell viability assay.

Ca9-22 = type: functional, cell-based; conditions: Homo sapiens;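 further: growth inhibition of Ca9-22 cells, read out with a cell viability assay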
Description: SANGER: Inhibition of human Ca9-22 cell growth in a cell viability assay.

DU-145 = type: functional, cell-based; conditions: Homo sapiens
Description: SANGER: Inhibition of human DU-145 cell growth in a cell viability assay.

EC-GI-10 = type: functional, cell-based, Homo sapiens; conditions: Homo sapiens, EC-GI-10
Description: SANGER: Inhibition of human EC-GI-10 cell growth in a cell viability assay.

G-361 = type: functional, cell-based; conditions: Homo sapiens
GAMG = type: functional, cell-based; conditions: Homo sapiens;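 further: cell growth inhibition measured by a viability assay in the GAMG human cell line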
Description: SANGER: Inhibition of human GAMG cell growth in a cell viability assay.

H4 = type: functional, cell-based; conditions: Homo sapiens
Description: SANGER: Inhibition of human H4 cell growth in a cell viability assay.

HCC1937 = type: functional, cell-based; conditions: Homo sapiens;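 further: growth inhibition measured with a cell viability read-out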
Description: SANGER: Inhibition of human HCC1937 cell growth in a cell viability assay.

HCC38 = type: functional, cell-based; conditions: Homo sapiens;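 further: cell viability assay on the human HCC38 cell line, with IC50 marking the concentration that inhibits cell growth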
Description: SANGER: Inhibition of human HCC38 cell growth in a cell viability assay.

HGC-27 = type: functional, cell-based; conditions: Homo sapiens;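 further: growth inhibition of human HGC-27 cells, read out in a cell viability assay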
Description: SANGER: Inhibition of human HGC-27 cell growth in a cell viability assay.

HOP-92 = type: functional, cell-based; conditions: Homo sapiens;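 further: cell viability readout, with IC50 reflecting inhibition of HOP-92 cell growth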
Description: SANGER: Inhibition of human HOP-92 cell growth in a cell viability assay.

HOS = type: functional, cell-based; conditions: Homo sapiens;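 further: growth inhibition of human HOS cells, read out with a cell viability assay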
Description: SANGER: Inhibition of human HOS cell growth in a cell viability assay.

HSC-3 = type: functional, cell-based; conditions: Homo sapiens
Description: SANGER: Inhibition of human HSC-3 cell growth in a cell viability assay.

HTC-C3 = type: functional, cell-based; conditions: Homo sapiens;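 further: inhibition of cell growth, read out with a cell viability assay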
Description: SANGER: Inhibition of human HTC-C3 cell growth in a cell viability assay.

HuO9 = type: functional, cell-based; conditions: Homo sapiens;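 further: growth inhibition of HuO9 cells, read out with a cell viability assay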
Description: SANGER: Inhibition of human HuO9 cell growth in a cell viability assay.

MDA-MB-415 = type: functional, cell-based; conditions: Homo sapiens
NB12 = type: functional, cell-based; conditions: Homo sapiens;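 further: growth inhibition of human NB12 cells, read out by a cell viability assay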
Description: SANGER: Inhibition of human NB12 cell growth in a cell viability assay.

NCI-H1573 = type: functional, cell-based; conditions: Homo sapiens;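 further: growth inhibition of NCI-H1573 cells, read out with a cell viability assay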
Description: SANGER: Inhibition of human NCI-H1573 cell growth in a cell viability assay.

NCI-H1623 = type: functional, cell-based; conditions: Homo sapiens;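 further: cell viability assay used as the read-out for growth inhibition of NCI-H1623 cells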
Description: SANGER: Inhibition of human NCI-H1623 cell growth in a cell viability assay.

NCI-H1703 = type: functional, cell-based; conditions: Homo sapiens;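 further: growth inhibition of NCI-H1703 cells, read out via a cell viability assay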
Description: SANGER: Inhibition of human NCI-H1703 cell growth in a cell viability assay.

NCI-H2122 = type: functional, cell-based; conditions: Homo sapiens;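 further: growth inhibition of the cells, read out with a cell viability assay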
Description: SANGER: Inhibition of human NCI-H2122 cell growth in a cell viability assay.

NCI-H727 = type: functional, cell-based; conditions: Homo sapiens;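 further: growth inhibition of human NCI-H727 cells, read out with a cell viability assay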
Description: SANGER: Inhibition of human NCI-H727 cell growth in a cell viability assay.

NY = type: functional, cell-based; conditions: Homo sapiens
Description: SANGER: Inhibition of human NY cell growth in a cell viability assay.

OE19 = type: functional, cell-based; conditions: Homo sapiens;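 further: growth inhibition of OE19 cells, measured through a cell viability read-out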
Description: SANGER: Inhibition of human OE19 cell growth in a cell viability assay.

SF-295 = type: functional, cell-based; conditions: Homo sapiens;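 further: growth inhibition of SF-295 cells, read out with a cell viability assay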
Description: SANGER: Inhibition of human SF295 cell growth in a cell viability assay.

SK-MEL-24 = type: functional, cell-based; conditions: Homo sapiens;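 further: growth inhibition read out by a cell viability assay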
Description: SANGER: Inhibition of human SK-MEL-24 cell growth in a cell viability assay.

SK-MEL-28 = type: functional, cell-based; conditions: Homo sapiens;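 further: growth inhibition of human SK-MEL-28 cells, read out with a cell viability assay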
Description: SANGER: Inhibition of human SK-MEL-28 cell growth in a cell viability assay.

SK-MEL-30 = type: functional, cell-based; conditions: Homo sapiens;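 further: growth inhibition of SK-MEL-30 cells, determined with a cell viability assay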
Description: SANGER: Inhibition of human SK-MEL-30 cell growth in a cell viability assay.

SK-N-AS = type: functional, cell-based; conditions: Homo sapiens;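 further: growth inhibition of human SK-N-AS cells, measured with a cell viability assay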
Description: SANGER: Inhibition of human SK-N-AS cell growth in a cell viability assay.

SNU-423 = type: functional, cell-based; conditions: Homo sapiens
Description: SANGER: Inhibition of human SNU-423 cell growth in a cell viability assay.

SW1088 = type: functional, cell-based; conditions: Homo sapiens;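 further: growth inhibition of human SW1088 cells, read out by a cell viability assay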
Description: SANGER: Inhibition of human SW1088 cell growth in a cell viability assay.

SW948 = type: functional, cell-based; conditions: Homo sapiens;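 further: growth inhibition of SW948 cells, read out with a cell viability assay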
Description: SANGER: Inhibition of human SW948 cell growth in a cell viability assay.

SiHa = type: functional, cell-based; conditions: Homo sapiens;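 further: Viability-based readout of growth inhibition in SiHa cells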
Description: SANGER: Inhibition of human SiHa cell growth in a cell viability assay.

TCC-SUP = type: functional, cell-based; conditions: Homo sapiens;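 further: growth inhibition of TCC-SUP cells, read out with a cell viability assay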
Description: SANGER: Inhibition of human TCCSUP cell growth in a cell viability assay.

ABC-1 = type: functional, cell-based; conditions: Homo sapiens;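 further: growth inhibition of human ABC-1 cells, read out by a cell viability assay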
Description: SANGER: Inhibition of human ABC-1 cell growth in a cell viability assay.

AGS = type: functional, cell-based; conditions: Homo sapiens;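 further: growth inhibition of AGS cells, determined with a cell viability assay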
Description: SANGER: Inhibition of human AGS cell growth in a cell viability assay.

AN3-CA = type: functional, cell-based; conditions: Homo sapiens;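 further: growth inhibition of human AN3-CA cells measured by a cell viability assay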
Description: SANGER: Inhibition of human AN3-CA cell growth in a cell viability assay.

BHY = type: functional, cell-based; conditions: Homo sapiens;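 further: cell growth inhibition read out by a viability assay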
Description: SANGER: Inhibition of human BHY cell growth in a cell viability assay.

C3A = type: functional, cell-based; conditions: Homo sapiens;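 further: growth inhibition of C3A human cells, quantified with a cell viability readout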
Description: SANGER: Inhibition of human C3A cell growth in a cell viability assay.

CAL-54 = type: functional, cell-based; conditions: Homo sapiens;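 further: growth inhibition of CAL-54 cells, read out by a viability measurement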
Description: SANGER: Inhibition of human CAL-54 cell growth in a cell viability assay.

CAL-72 = type: functional, cell-based; conditions: Homo sapiens;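 further: cell viability assay measuring inhibition of proliferation in the CAL-72 cell line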
Description: SANGER: Inhibition of human CAL-72 cell growth in a cell viability assay.

UACC-62 = type: functional, cell-based; conditions: Homo sapiens;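 further: growth inhibition of human UACC-62 cells, read out by a cell viability assay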
Description: SANGER: Inhibition of human UACC-62 cell growth in a cell viability assay.

UMUC3 = type: functional, cell-based; conditions: Homo sapiens;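 further: growth inhibition of human UM-UC-3 cells, read out with a cell viability assay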
Description: SANGER: Inhibition of human UM-UC-3 cell growth in a cell viability assay.

WM-115 = type: functional, cell-based; conditions: Homo sapiens
Description: SANGER: Inhibition of human WM-115 cell growth in a cell viability assay.

CAMA-1 = type: functional, cell-based; conditions: Homo sapiens;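 further: growth inhibition of CAMA-1 cells, read out with a cell viability assay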
Description: SANGER: Inhibition of human CAMA-1 cell growth in a cell viability assay.

CHL-1 = type: functional, cell-based; conditions: Homo sapiens;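 further: cell growth inhibition, read out with a cell viability assay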
Description: SANGER: Inhibition of human CHL-1 cell growth in a cell viability assay.

COLO-678 = type: functional, cell-based; conditions: Homo sapiens
Description: SANGER: Inhibition of human COLO-678 cell growth in a cell viability assay.

SJRH30 = type: functional, cell-based; conditions: Homo sapiens;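 further: growth inhibition of human SJRH30 cells, read out with a cell viability assay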
Description: SANGER: Inhibition of human SJRH30 cell growth in a cell viability assay.

Compound: NC(=O)Nc1cc(-c2cccc(F)c2)sc1C(=O)N[C@H]1CCCNC1 [AZD-7762]
- IC50 (CP66-MEL): > 2 µM
- IC50 (Ca9-22): 0.541 µM
- IC50 (DU-145): > 2 µM
- IC50 (EC-GI-10): 1.78 µM
- IC50 (G-361): 0.387 µM
- IC50 (GAMG): 0.386 µM
- IC50 (H4): 0.221 µM
- IC50 (HCC1937): 0.706 µM
- IC50 (HCC38): 0.75 µM
- IC50 (HGC-27): 0.491 µM
- IC50 (HOP-92): 0.293 µM
- IC50 (HOS): 0.88 µM
- IC50 (HSC-3): 0.486 µM
- IC50 (HTC-C3): 0.835 µM
- IC50 (HuO9): 0.298 µM
- IC50 (MDA-MB-415): > 2 µM
- IC50 (NB12): > 2 µM
- IC50 (NCI-H1573): 1.42 µM
- IC50 (NCI-H1623): > 2 µM
- IC50 (NCI-H1703): 0.00643 µM
- IC50 (NCI-H2122): 0.123 µM
- IC50 (NCI-H727): 0.698 µM
- IC50 (NY): > 2 µM
- IC50 (OE19): > 2 µM
- IC50 (SF-295): 0.298 µM
- IC50 (SK-MEL-24): > 2 µM
- IC50 (SK-MEL-28): > 2 µM
- IC50 (SK-MEL-30): > 2 µM
- IC50 (SK-N-AS): 0.188 µM
- IC50 (SNU-423): 0.535 µM
- IC50 (SW1088): 0.916 µM
- IC50 (SW948): > 2 µM
- IC50 (SiHa): 0.859 µM
- IC50 (TCC-SUP): > 2 µM
- IC50 (ABC-1): 0.261 µM
- IC50 (AGS): 0.582 µM
- IC50 (AN3-CA): 0.837 µM
- IC50 (BHY): 0.688 µM
- IC50 (C3A): > 2 µM
- IC50 (CAL-54): 0.74 µM
- IC50 (CAL-72): > 2 µM
- IC50 (UACC-62): 0.776 µM
- IC50 (UMUC3): 0.903 µM
- IC50 (WM-115): > 2 µM
- IC50 (CAMA-1): > 2 µM
- IC50 (CHL-1): 0.526 µM
- IC50 (COLO-678): > 2 µM

Compound: Cc1ccc(-n2nc(C(C)(C)C)cc2NC(=O)Nc2ccc(OCCN3CCOCC3)c3ccccc23)cc1 [DORAMAPIMOD]
- IC50 (CP66-MEL): > 10 µM
- IC50 (Ca9-22): > 10 µM
- IC50 (DU-145): 3.94 µM
- IC50 (G-361): > 10 µM
- IC50 (GAMG): > 10 µM
- IC50 (H4): > 10 µM
- IC50 (HCC1937): > 10 µM
- IC50 (HCC38): > 10 µM
- IC50 (HGC-27): > 10 µM
- IC50 (HOP-92): > 10 µM
- IC50 (HOS): > 10 µM
- IC50 (HSC-3): > 10 µM
- IC50 (HTC-C3): > 10 µM
- IC50 (HuO9): > 10 µM
- IC50 (MDA-MB-415): > 10 µM
- IC50 (NB12): > 10 µM
- IC50 (NCI-H1573): > 10 µM
- IC50 (NCI-H1623): > 10 µM
- IC50 (NCI-H1703): > 10 µM
- IC50 (NCI-H2122): > 10 µM
- IC50 (NCI-H727): > 10 µM
- IC50 (NY): > 10 µM
- IC50 (OE19): > 10 µM
- IC50 (SF-295): > 10 µM
- IC50 (SJRH30): > 10 µM
- IC50 (SK-MEL-24): > 10 µM
- IC50 (SK-MEL-28): > 10 µM
- IC50 (SK-MEL-30): > 10 µM
- IC50 (SK-N-AS): > 10 µM
- IC50 (SNU-423): > 10 µM
- IC50 (SW1088): > 10 µM
- IC50 (SW948): > 10 µM
- IC50 (SiHa): > 10 µM
- IC50 (TCC-SUP): > 10 µM
- IC50 (ABC-1): > 10 µM
- IC50 (AGS): > 10 µM
- IC50 (AN3-CA): > 10 µM
- IC50 (BHY): > 10 µM
- IC50 (C3A): > 10 µM
- IC50 (CAL-54): > 10 µM
- IC50 (CAL-72): > 10 µM
- IC50 (UACC-62): > 10 µM
- IC50 (UMUC3): > 10 µM
- IC50 (WM-115): > 10 µM
- IC50 (CAMA-1): > 10 µM
- IC50 (CHL-1): > 10 µM
- IC50 (COLO-678): > 10 µM
